According to US20200032350A1, “COMPANION DIAGNOSTICS FOR LEUKEMIA TREATMENT” (JOHANN WOLFGANG GOETHE-UNIVERSITÄT FRANKFURT AM MAIN, priority 2017, published 2020):

Key:
H/M cells [1] = assay: colony formation and replating assay; format: cell-based, mouse
Excerpt: (§1) To elucidate the molecular mechanisms underlying Meis1's contribution to leukemogenesis, a retroviral transplantation model was employed in which lineage-depleted mouse bone marrow cells were transduced with an MSCV-Hoxa9-PGK-neo construct, alone or in combination with an MSCV-Meis1-IRES-YFP construct that induced a 22-fold overexpression of Meis1. As reported by previously, the transformed cells could be cultured in vitro in the presence of IL3/IL6/SCF and expressed the expected immunophenotype characterized by the myeloid markers Mac-1 and Gr-1 as well as c-Kit (Pineault et al., 2005; Wang et al., 2005). When transplanted into irradiated recipient mice, cells transduced with Hoxa9 (H) or Hoxa9/Meis1 (H/M) gave rise to leukemia resulting in a median overall survival of 114 days and 41 days, respectively (p<0.001; FIG. 1A). This difference in survival is in accordance with previously published results and reflects the aggressiveness of Hoxa9/Meis1-driven AML observed in patients (Kroon et al., 1998).
The inventors next sought to characterize the functional consequences of Syk overexpression in the context of Hoxa9-driven leukemias. […]
To test whether the enhanced Syk signaling observed in H/M cells could be exploited therapeutically, the effects of Syk inhibitors and of an shRNA-mediated knockdown of Syk in H/M cells, in vitro and in vivo were analyzed.

H/S cells = assay: colony formation and replating assay; format: cell-based, mouse
Excerpt: (§2) The inventors next sought to characterize the functional consequences of Syk overexpression in the context of Hoxa9-driven leukemias. For this purpose, the consequences of a lentiviral overexpression of human SYK (hSYK) in H cells in vitro and in vivo were examined. […] While Hoxa9 alone is sufficient to enable replating, both Meis1 and hSYK enhanced replating efficiency.

H cells [2] = assay: colony formation and replating assay; format: cell-based, mouse
Excerpt: as §1, §2

H cells [3] = assay: time-lapse microscopy and single-cell tracking; format: cell-based, mouse; conditions: compared with DMSO-treated cells, tracked over more than 50 hours
Procedure: (§3) The effect of Syk inhibition in H and H/M cells was further examined by monitoring the fate of individual cells and their progeny by time-lapse microscopy and single-cell tracking (Rieger et al., 2009). This allowed to track hundreds of H and H/M cells over more than 50 hours in real time and to record their history across cell generations. […] In addition, the inventors knocked down Syk in vivo by transplanting mice with cells that were either transduced with the doxycycline-inducible lentiviral Syk shRNAs or with control shRNAs and treating them with doxycycline for 43 days. Knockdown of Syk prolonged the survival of mice transplanted with H/M cells from a median time of 40.5 days in controls to a median of 103 days (p<0.001) (FIGS. 7C and 7D). Furthermore, mice transplanted with H/M or H cells were treated with the oral Syk inhibitor R788, a prodrug of R406.

H/M cells [4] = assay: time-lapse microscopy and single-cell tracking; format: cell-based, mouse; conditions: compared with DMSO-treated cells, tracked over more than 50 hours
Procedure: as §3

[5] = tested on: CD34+ progenitor cells isolated from healthy donors; assay: relative viability of CD34+ bone marrow cells from healthy donors; format: cell-based, human
Procedure: Cells were treated for 24 h and DMSO was used as a control. (J) Relative viability of CD34+ bone marrow cells from healthy donors.

H/M cells [6] = assay: treatment of mice transplanted with H/M cells; format: in vivo
Excerpt: (§4) FIG. 7. Meis1 sensitizes Hoxa9-driven leukemia to Syk inhibition. (A) SYK protein expression in H/M cells transfected with either a control shRNA (GL2) or two shRNAs targeting SYK. Actin was used as loading control for relative protein quantification. (B) Percentage of BFP-positive shRNA-expressing cells relative to BFP-negative shRNA-negative cells at the times indicated (mean±SD, normalized to day 0). (C) Same as (A), before and after five days of doxycycline (dox) treatment in vivo. (D) Kaplan-Meier survival curves of mice transplanted with H/M cells and treated with doxycycline for 43 days to express non-specific control and Syk-specific shRNA (n=8). p-value is from a Mantel-Cox test. (E) Percentage of YFP-positive cells from peripheral blood of mice transplanted with H (left) or H/M (right) cells after treating for 7 days with R788 or placebo. Measurements were taken at the indicated time points. The black line connects median values. (F) Kaplan-Meier survival curves of mice transplanted with either H or H/M cells and treated for 20 days with R788 or placebo (n=11). p-value is from a Mantel-Cox test. (G) Relative HOXA9 and MEIS1 mRNA expression in MV4-11 and KG1 cell lines, and in patient-derived AML cells as measured by qPCR, normalized to GAPDH expression (mean±SD, n=3). […] Actin was used as loading control for relative protein quantification. avg, average. […]

H cells [7] = assay: treatment of mice transplanted with H cells; format: in vivo
Excerpt: as §4

Row | SMILES | colony formation potential and replating efficiency (H/M cells [1]) | replating efficiency (H/M cells [1]) | replating efficiency (H/S cells) | colony formation and replating efficiency (H cells [2]) | cell death (H cells [3]) | cell death (H/M cells [4]) | viability [5] | reduction of the percentage of leukemic cells (H/M cells [6]; seven days of treatment, oral, peripheral blood YFP-positive cells, on average) | median survival (H/M cells [6]; treatment for 20 days, placebo median 38 days, p<0.001) [days] | level of H cells (percentage of leukemic cells) (H cells [7]; seven days of treatment, oral) | survival (H cells [7]; treatment for 20 days)
1 | COc1cc(Nc2ncc(F)c(Nc3ccc4c(n3)NC(=O)C(C)(C)O4)n2)cc(OC)c1OC [R406] | significantly reduced | decreased replating efficiency | decreased replating efficiency | moderately affecting | not significantly affected | significant increase in cell death | did not affect the viability | – | – | – | –
2 | COc1cc(Nc2ncc(F)c(Nc3ccc4c(n3)N(COP(=O)(O)O)C(=O)C(C)(C)O4)n2)cc(OC)c1OC [R788, fostamatinib] | – | – | – | – | – | – | – | more than 70% | 130 | barely affecting | No significant effect
